Usually EC50 stands for the concentration giving half of the maximal effect. A higher EC50 goes with weaker potency. For orientation: IC50 means the midpoint of a concentration-inhibition curve. A low value points to inhibition by little substance.

The results in this text go back to patent publication US12304909B2, “Compounds and their use in therapy” (IMPERIAL COLLEGE INNOVATIONS LIMITED, priority 2018, dated 2025).

Each structure is given as a SMILES string.

One series in a line: Mouse half life in vivo. The conditions noted are these: plasma; mouse oral half-life; male CD-1 mice, 10 mg/kg po; read-out: Rat or mouse t ½ (mouse) (converted). The procedure: Example Compound 1, and Comparative Examples 2 and 3 were tested for metabolic stability in male Sprague-Dawley rats. Comparative Example 5 was tested for metabolic stability in male CD-1 mice. Compounds having good metabolic stability in rats or mice are expected to be especially useful as agents for preventing and/or treating cancer, by having a long half-life in human patients.
Same as rat protocol except that CD-1 mice were dosed at 5 mg/kg iv and 10 mg/kg po.

The subject of a further series is MRC5 cells. The series is described as follows: Metabolic activity assay (MTS assay), MRC5. Format: cell-based, human. The note with it: Homo sapiens, MRC5, 72 h. The procedure:
Example NMT inhibitors of the present invention were tested for activity in an in vitro metabolic activity assay using the human cell line MRC5. Comparative Examples 1, 2, 3, 4, 5 and 6 were also tested in the same metabolic activity assay. Compounds having activity in inhibiting metabolic activity in the assay are expected to be useful as agents for preventing and/or treating cancer, by virtue of being inhibitors of human NMT1 and/or NMT2.
MRC5 cells (obtained from Dr David Mann's group, Imperial College; cell type: fibroblasts cells which derive from normal lung tissue) were grown in DMEM media (supplemented with 10% FBS) and were seeded in a 96-well plate, 24 h prior to treatment. Cell suspensions were prepared by adjusting the cell density to the appropriate concentration (as stated in the Table 1 below) and 50 μL of the cell suspension was transferred to wells B-G in columns 2-11 of a 96-well plate.
100 μL of growth media (DMEM media) containing 0.2% DMSO was added to wells B-G in columns 2 and 11 as positive controls, and 100 μl of growth media containing Puromycin (3 μg/mL; final concentration in the plate 2 μg/mL) was added to wells B-G in column 3 as a negative control. Seven concentrations of NMT inhibitor stock solution were prepared for each Example (Example 1 and 2) and each Comparative Example (Comparative Examples 1, 2, 3, 4, 5 and 6) tested (same final percentage of DMSO, dilution factor=3 starting from 15 μM or 150 μM). 100 μL of inhibitor stock solution was added to wells B-G in columns 4-10 of a 96-well plate (final concentration of Example compound or Comparative Example compound in the plate starting from 10 μM or 100 μM; total volume in each well was 150 μL). The plate was incubated at 37° C. with 5% CO2 level.
After 72 h, 20 μL MTS reagent (Promega, prepared according to the supplier protocol) was added to each well of the 96-well plate. The plate was incubated at 37° C. for 2 h and the absorbance per well was measured at 490 nm with an EnVision plate reader. The average absorbance value of the negative control (Puromycin-treated cells) was subtracted from each value and the metabolic activity was calculated as a percentage relative to the positive control (DMSO-treated cells). EC50 values were calculated using GraphPad.
Background: Tetrazolium dyes change colour on reduction, which living cells bring about.

A further series addresses T1, human NMT1 (HsNMT1) (Homo sapiens, UniProt P30419).
T1 sequence (P30419 1-496): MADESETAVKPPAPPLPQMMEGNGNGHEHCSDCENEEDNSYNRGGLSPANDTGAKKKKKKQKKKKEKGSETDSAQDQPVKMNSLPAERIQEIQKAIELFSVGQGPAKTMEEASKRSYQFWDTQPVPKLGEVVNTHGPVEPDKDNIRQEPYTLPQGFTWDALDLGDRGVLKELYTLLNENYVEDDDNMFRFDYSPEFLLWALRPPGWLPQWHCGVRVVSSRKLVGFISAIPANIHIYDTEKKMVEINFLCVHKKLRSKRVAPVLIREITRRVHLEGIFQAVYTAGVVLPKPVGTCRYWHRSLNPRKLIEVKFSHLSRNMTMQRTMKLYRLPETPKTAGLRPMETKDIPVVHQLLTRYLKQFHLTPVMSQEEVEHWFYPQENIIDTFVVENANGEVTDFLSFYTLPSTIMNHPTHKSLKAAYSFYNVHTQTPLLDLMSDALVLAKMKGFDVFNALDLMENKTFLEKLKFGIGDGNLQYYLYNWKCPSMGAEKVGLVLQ
The series is described as follows: HsNMT1 IC50, fluorescence-based assay detecting CoA with CPM. Format: biochemical. The procedure: The IC50 values for human NMT1 (HsNMT1) of four Example compounds of the invention described above (Examples 1-4) and six comparative examples (Comparative Examples 1, 2, 3, 4, 5 and 6) were measured using a sensitive fluorescence-based assay based on detection of CoA by 7-diethylamino-3-(4-maleimido-phenyl)-4-methylcoumarin, as described in Goncalves, V., et al., Analytical Biochemistry, 2012, 421, 342-344 and Goncalves, V., et al., J. Med. Chem, 2012, 55, 3578.

Series [1] can be described thus: Human liver microsomes half life. Format: in vitro ADME. The conditions noted are these: pH 7.4, read-out: Human liver microsomes t ½. The procedure:
Example Compound 1 was tested for metabolic stability in an assay using human liver microsomes. Comparative Examples 2, 3, 4, 5 and 6 were also tested in the same assay. Compounds having good metabolic stability in the assay are expected to be especially useful as agents for preventing and/or treating cancer, by having a long half-life in human patients
Frozen human liver microsomes obtained from Corning, USA (cat #452117) were thawed and diluted with 100 mM of pH 7.4 phosphate buffer to give a 1 mg/ml solution. An NADPH regeneration system (NRS) was prepared as a solution containing 13 mM NADP, 33 mM glucose-6-phosphate, 33 mM MgCl2 and 4U/mL glucose-6-phosphate dehydrogenase in 100 mM of pH7.4 phosphate buffer. The test compound (4 mM) in DMSO was diluted with acetonitrile to provide a 100 μM sub-stock then further diluted with 100 mM of pH7.4 phosphate buffer to provide a 2 μM working solution. The liver microsome solution and NRS were incubated at 37° C. before use. To each well of the test plate was dispensed 60 μL of buffer, 50 μL of test compound solution and 10 μL of NRS. A reaction was initiated by addition of 40 μL of liver microsome solution. Wells were incubated for an appropriate time (0, 5, 10, 20, 30 and 60 min) then quenched with 300 μL of acetonitrile containing reference standards atenolol, propranolol, diclofenac, verapamil). All plates were centrifuged at 3500 rpm for 20 min at 15° C. to pellet the debris. 110 μL supernatant was diluted 110 μL water and quantitated using LC-MS/MS.
The results were used to calculate the % Remaining of the test compound at time point t=100×˜[(AUC at time point t)/(AUC at T=0)]. A linear regression curve was fitted to a plot of natural logarithm (In) of AUC against time. The T-half (min)=0.693/slope.

`Cc1nn(C)c(C)c1CCOc1cc(F)ccc1-c1ccc2c(c1)c(CN(C)C)nn2C` [Comparative Example 5, 1-(5-(4-fluoro-2-(2-(1,3,5-trimethyl-1H-pyrazol-4-yl)ethoxy)phenyl)-1-methyl-1H-indazol-3-yl)-N,N-dimethylmethanamine]: in the series “Mouse half life in vivo”, the half-life was 42 min. The same compound yielded an EC50 in the series on MRC5 cells of 27 µM. On human NMT1 (HsNMT1), this compound came in with an IC50 of 0.013 µM. The half-life at 0.625 µM in series [1] was 7 min.
